Source: US8680153B2, “Method for correcting a lipid imbalance in a subject” (The Royal Institution for the Advancement of …, priority 2005, dated 2014)

What was measured:
[1] = tested on: osteoblasts and osteoclasts; test: Osteoblast and osteoclast counts in femur (H&E, TRAP); assay type: in vivo, mice
Protocol: (§1) Fenretinide Diet Supplementation. Examples 2 to 6: fenretinide (Sigma-Aldrich, Oakville, ON) powder was resuspended in 95% ethanol and subsequently incorporated in the Peptamen liquid diet. It was protected from light and kept at 4° C. before being given to the mice (5 mg/kg per day per mouse). Mock-treated diets were prepared similarly by adding ethanol to the Peptamen diet but omitting the fenretinide supplementation. The diet was given every morning for 28 consecutive days with specific monitoring of the quantity consumed by the mice in each cage. Examples 7 to 12: fenretinide powder was kindly provided by Dr. Robert Smith (NIH; Bethesda, Md., USA). Fenretinide was resuspended in 95% ethanol to make a 2 μg/μL concentration. Approximately 40 μL of this preparation was incorporated into the Peptamen liquid diet (5 mg/kg per day per mouse). The prepared food containing fenretinide was then stored in the dark at 4° C. for no more than 3 hours prior to being administered to the mice. To ensure that the entire drug dose was consumed, the mice were given 10 mL of fenretinide-treated Peptamen, which represents ⅔ of the daily mouse food consumption, in the late afternoon. […] During the treatment period each mouse was kept in a separate cage (including WT mice) and was monitored to ensure that the entire amount of Peptamen containing the fenretinide or with out was consumed. […]

ceramide levels = test: Plasma ceramide levels, biweekly treatment for 4 weeks; assay type: in vivo; details: Cftr-KO mice, 4 weeks of biweekly treatment, p<0.05
Protocol: as §1, with “mouse).” for “mouse). The prepared food containing fenretinide was then stored in the dark at 4° C. for no more than 3 hours prior to being administered to the mice. To ensure that the entire drug dose was consumed, the mice were given 10 mL of fenretinide-treated Peptamen, which represents ⅔ of the daily mouse food consumption, in the late afternoon.”
Ceramide/Sphingolipids analysis. The concentration of ceramide in the (lung, liver, ileum, pancreas homogenates) and plasma from mice and humans were determined by ELISA^39;40 on separated lipids samples by thin layer chromatography, as described above. […]

alveolar cells = test: Alveolar (inflammatory) cells in bronchoalveolar lavage fluid of infected mice; assay type: in vivo
Protocol: Mouse Lung Infection. Mice were anaesthetized with a combination of ketamine (7.5 mg/mL) and xylazine (0.5 mg/mL) administered intraperitoneally at a dose of 20 mL/kg of body weight. Once the mouse was successfully anaesthetized, the animal was installed under binoculars (Microscope M650, Wild Leitz, Willowdale, ON) in the vertical position and held on a restraining board by holding the animal by its upper incisor teeth (Guilbault, et al. (2005) supra). The tongue was then gently pulled to the side of the mouth and a 26-G gavage needle was inserted into the mouth and guided through the pharynx gently touching the vocal cords to see the lumen of the trachea; the needle was then introduced into the trachea to reach the lung for the bilateral injection of the 50 microliter inoculum. After inoculation, the animal regained righting reflex within an hour. A final dose of 1×10^6 P. aeruginosa was used for infection using wild-type and Cftr-KO mice. Mice were monitored 3 times daily; the maximum weight loss allowed was 15%. Mice were sacrificed by CO2 overdose.
Bronchoalveolar Lavage. Circulation was flushed by slow intracardiac infusion of divalent cation-free Hank's balanced salt solution (HBSS; INVITROGEN™, Mississauga, ON). The trachea was cannulated with a 22-gauge intravenous catheter placement unit (CRITIKON®, GE Medical Systems, Tampa, Fla.) connected to two 5 mL syringes via a 3-way stopcock with a rotating collar (Namic U.S.A., Glens Falls, N.Y.). The alveoli of infected mice were washed 3 times with 1.4 mL of divalent cation-free HBSS. The volume of bronchoalveolar lavage fluid recovered was approximately 1.2 mL. […] Cells were resuspended in 0.5 mL of Dulbecco's Modified Eagle Medium (DMEM; INVITROGEN™) supplemented with 10% fetal bovine serum (FBS; Hyclone, Logan, Utah), diluted in Turk's solution and counted using a hematocytometer. The proportions of macrophages, lymphocytes and PMN were calculated after counting approximately 300 alveolar cells on cytospin preparations stained with DIFF-QUICK® stain (American Scientific Products, McGaw Park, Ill.).

## CC1=C(/C=C/C(C)=C/C=C/C(C)=C/C(=O)Nc2ccc(O)cc2)C(C)(C)CCC1 [fenretinide, all-trans-N-(4-hydroxyphenyl) retinamide]
[1]; Cftr-KO and WT mice
  Number of osteoclasts, treated vs untreated: No significant difference
[1]; Cftr-KO mice, p<0.05
  Amount of osteoblasts vs untreated Cftr-KO: increase
Ceramide levels
  Ceramide levels, increase vs untreated Cftr-KO: 5.9 fold
Alveolar cells; Cftr-KO mice, day 3 post-infection (p=0.530 vs mock-treated)
  Mean total number of alveolar cells in the lungs: 1.1×10^6±1.3×10^6
Alveolar cells; day 3 post-infection, wild-type and Cftr-KO, neutrophils, monocytes, lymphocytes
  Effect on cells recruited into the lungs of infected mice vs mock-treated: no effect
Alveolar cells; wild-type mice, day 3 post-infection (p=0.280 vs mock-treated)
  Mean total number of alveolar cells in the lungs: 1.2×10^6±1.0×10^6
